Results as given in the supplement of paper PMC10307832.

Key:
Assay in all cases: relative viability (nuclei count vs DMSO), 5 days (fraction); higher = more cells survive
[1] = compound: O=C(O)c1ccc2c(c1)nc(Nc1cccc(Cl)c1)c1ccncc12 [Silmitasertib] + Cc1nc(NC(=O)N2CCC[C@H]2C(N)=O)sc1-c1ccnc(C(C)(C)C(F)(F)F)c1 [Alpelisib] (partner 2 µM)
In short: (§1)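 Relative viability is defined as nuclei in treated wells over nuclei in vehicle wells. Duplicate plates were run and medians reported. Lung cancer cell lines in 1536-well plates were dosed by pin tool one day after seeding, with one drug or with a fixed anchor-drug dose plus five library-drug doses (not always all listed) in √10 steps, and nuclei were counted after 5 days.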

[2] = compound: O=C(O)c1ccc2c(c1)nc(Nc1cccc(Cl)c1)c1ccncc12 [Silmitasertib] + Cc1nc(Nc2ncc(C(=O)Nc3c(C)cccc3Cl)s2)cc(N2CCN(CCO)CC2)n1 [Dasatinib] (partner 0.075 µM)
In short: as §1

[3] = compound: O=C(O)c1ccc2c(c1)nc(Nc1cccc(Cl)c1)c1ccncc12 [Silmitasertib] + CS(=O)(=O)N1CCN(Cc2cc3nc(-c4cccc5[nH]ncc45)nc(N4CCOCC4)c3s2)CC1 [Pictilisib] (partner 1 µM)
In short: as §1

[4] = compound: O=C(O)c1ccc2c(c1)nc(Nc1cccc(Cl)c1)c1ccncc12 [Silmitasertib] + N=C(N)NC(=N)NCCc1ccccc1 [Phenformin] (partner 250 µM)
In short: as §1

[5] = compound: O=C(O)c1ccc2c(c1)nc(Nc1cccc(Cl)c1)c1ccncc12 [Silmitasertib] + CS(=O)(=O)CCNCc1ccc(-c2ccc3ncnc(Nc4ccc(OCc5cccc(F)c5)c(Cl)c4)c3c2)o1 [Lapatinib] (partner 2 µM)
In short: as §1

Cell Line	relative viability ([1]; first compound 0.04 µM)	relative viability ([1]; first compound 1.265 µM)	relative viability ([1]; first compound 4 µM)	relative viability ([2]; first compound 0.04 µM)	relative viability ([2]; first compound 1.265 µM)	relative viability ([2]; first compound 4 µM)	relative viability ([3]; first compound 0.04 µM)	relative viability ([3]; first compound 1.265 µM)	relative viability ([3]; first compound 4 µM)	relative viability ([4]; first compound 0.04 µM)	relative viability ([4]; first compound 1.265 µM)	relative viability ([4]; first compound 4 µM)	relative viability ([5]; first compound 0.04 µM)	relative viability ([5]; first compound 1.265 µM)	relative viability ([5]; first compound 4 µM)	relative viability ([1]; first compound 0.4 µM)	relative viability ([2]; first compound 0.4 µM)	relative viability ([3]; first compound 0.4 µM)	relative viability ([4]; first compound 0.4 µM)	relative viability ([5]; first compound 0.4 µM)
NCI-H1915	1.05	1.14	0.885	0.32	0.332	0.192	1.02	0.956	0.408	0.362	0.37	0.249	0.994	1.02	0.397					
NCI-H1944	0.892	0.774	0.884	0.229	0.227	0.224	0.361	0.364	0.381	0.21	0.22	0.186	0.826	0.822	0.816	0.765	0.235	0.442	0.211	0.807
NCI-H1975	0.683	0.589	0.468	0.401	0.324	0.432	0.313	0.207	0.208	0.443	0.382	0.394	0.901	0.719	0.739	0.532		0.25		0.731
NCI-H1993	0.662	0.617	0.688	0.652	0.52	0.586	0.818	0.854	0.916	0.547	0.543	0.566	0.815	0.887	0.803	0.602	0.502	0.818	0.447	0.753
NCI-H2009	1.17	1.03	0.707	0.35	0.246	0.218	1.07	0.427	0.244	0.542	0.374	0.312	1.04	0.85	0.341	1.03	0.297	0.701	0.487	0.636
NCI-H2023	0.684	0.599	0.399	0.547	0.548	0.416	0.275	0.194	0.179	0.455	0.374	0.34	1.05	0.767	0.159	0.522	0.443	0.275	0.38	0.373
NCI-H2085	1.02	0.81	0.878	0.253	0.245	0.265	0.474	0.453	0.457	0.761	0.675	0.597	0.916	0.674	0.507	0.806	0.233	0.547		0.509
NCI-H2087	1.08	0.76	0.386	0.828	0.695	0.308	0.997	0.577	0.347	0.515	0.431	0.223	0.924	0.727	0.377	0.811		0.513		0.753
NCI-H2126	0.72	0.727	0.704	0.602	0.573	0.539	0.512	0.45	0.454	0.494	0.494	0.462	0.803	0.691	0.544	0.667	0.584	0.508	0.515	0.759
NCI-H2170	0.805	0.697	0.771	0.61	0.676	0.598	0.32	0.31	0.269	0.408	0.406	0.421	0.292	0.276	0.274	0.648	0.502	0.259	0.34	0.258
NCI-H2228	0.785	0.821	0.808	0.517	0.523	0.528	0.505	0.367	0.305	0.409	0.258	0.371	1.16	1.03	1	0.821		0.312		0.944
NCI-H2347	1.07	0.93	0.904	0.581	0.313	0.254	0.739	0.665	0.82	1.22	0.452	0.301	0.944	0.759	0.508	0.854		0.829		0.77
NCI-H2405	0.935	0.639	0.775	0.221	0.222	0.236	0.586	0.379	0.28	0.435	0.34	0.301	1.51	0.844	0.562	0.688	0.209	0.388	0.34	0.903
NCI-H3122	0.784	0.902	0.969	0.807	0.84	0.834	0.694	0.634	0.644	0.416	0.433	0.47	1.07	1.07	1.08	0.726	0.706	0.53	0.365	0.975
PC-3 [JPC-3]	1.02	1.01	1	1.04	1.03	0.899	0.837	0.586	0.708	0.475	0.468	0.424	0.51	0.458	0.303	0.79	0.628	0.672	0.398	0.417
PC-14	0.968	0.924	0.939	0.273	0.293	0.388	0.629	0.566	0.646	0.641	0.547	0.125	0.325	0.381	0.391	0.942	0.236	0.661		0.347
